Source: patent publication US20110212923A1, “Phosphate Derivatives of Substituted Benzoxazoles” (PFIZER INC., priority 2008, published 2011)
In brackets after ≈: the same amount, converted by molar mass.

How the values were obtained:
[1] = metabolite profiling of pooled plasma after single IV dose of the mono-phosphate derivative, rat; conditions: single IV dose of mono-phosphate derivative (1.3 and 3.9 mg/kg), LC/UV/MS
Experimental: (§1) In this study, 5, 15, 30 min, 1, 2, 4, 6, 8 and 24 hr plasma samples were collected following a single IV dose of the mono-phosphate derivative (1.3 and 3.9 mg/kg) to mice, rats and monkeys. Equal volume (100 μL) of samples from 5, 15, 30 min and 1, 2, 4 hr and 6, 8, 24 hr time points from each subject (n=3) were pooled from the two dosing groups. Aliquots (900 μL) of pooled plasma were mixed with 2700 μL of cold acetonitrile and centrifuged at 3200×g for 10 minutes. The resulting supernatants were transferred to clean tubes and evaporated to dryness in a TurboVap LV at ambient temperature under a slow stream of nitrogen. The dried extracts were reconstituted with 300 μL of 20:80 acetonitrile:water (v/v). The samples were then analyzed by LC/UV/MS for metabolite profiling and characterization. LC-ESI/MS in negative ionization mode was used to acquire mass spectral data.

[2] = system: Albino BALBc mice, cecal ligation puncture (CLP); assay: cecal ligation puncture (mCLP) model, 7-day survival; assay type: in vivo
Experimental: The cecal ligation puncture (CLP) procedure was derived from a modification of standard methods previously described. Female, non-pregnant, specific pathogen-free, Albino BALBc mice (20-25 gm) were used in this experiment. The test compound (n=8 in each group) or corn oil control (n=12) were randomized to a treatment protocol consisting of 50 mg/kg of either the test compound or similar volume of corn oil at the time of CLP (time 0) and 24 and 48 hours following surgery. Animals were allowed to eat and drink sterile water on an ad libitum basis until 12 h before surgery when food was withheld until after the surgical procedure.
Anesthetized animals (methoxyflurane, Mallinckodt Veterninary Inc., Mundeline, Ill.) had the abdominal skin shaved and a midline, abdominal incision was made. The cecum was exteriorized and distended using intraluminal contents from the colon. The cecum was then ligated below the ileocecal valve and punctured twice using a 23-gauge sterile needle. The cecum was returned to the peritoneal cavity and the transversalis fascia was closed along with the skin incision. The skin incision was covered with topical bacitracin ointment. The animals were given a single […] dose of trovafloxacin (20 mg/kg IM) immediately post-operatively and a 1-mL subcutaneous dose of PBS was given as fluid resuscitation. […] All animals underwent necropsy examination for histological evidence of organ injury, pathology scoring of intestinal mucosa and quantitative bacteriology.
Differences in survival time between groups were analyzed by Kaplan-Meier survival plots and log-rank testing. Other parameters were measured using a Mann-Whitney U-Test for 2 groups or the Kruskal-Wallis one way analysis of variance for 3 or more groups. A p value of <0.05 was considered significant. All data is presented as mean and standard deviation.
The root compound (ERB-041) was dosed IV in the mCLP model, at 1 and 3 mg/kg at 24, 48 and 72 hours after induction of peritonitis. This therapeutic IV administration in mCLP confirmed attenuation of lung injury and cytokine/chemokine responses and attenuation of the subsequent clinical course, respectively.^5 achieving 7-day survival of 95 and 90% in the 3 and 1 mg/kg groups.
The 1 and 3 mg/kg doses were different from vehicle (0.05).

[3] = metabolite profiling of pooled plasma after single IV dose of the mono-phosphate derivative, monkey; conditions: single IV dose of mono-phosphate derivative (1.3 and 3.9 mg/kg), LC/UV/MS
Experimental: as §1

[4] = aqueous solubility at pH 7.4; assay type: physicochemical; conditions: aqueous medium at pH 7.4 (buffer not specified), pH 7.4, aqueous buffer
[5] = metabolite profiling of pooled plasma after single IV dose of the mono-phosphate derivative, mouse; conditions: single IV dose of mono-phosphate derivative (1.3 and 3.9 mg/kg), LC/UV/MS
Experimental: as §1

[6] = IV pharmacokinetics; assay type: in vivo
Experimental: as §1

[7] = 1 mg/kg IV at 24, 48 and 72 hours after surgery / induction of peritonitis
[8] = 3 mg/kg IV at 24, 48 and 72 hours after surgery / induction of peritonitis

Row | Structure (SMILES) | Metabolites of phosphate prodrug characterized in plasma: Rat [1] | 7-day survival [2, 7] [%] | 7-day survival [2, 8] [%] | lung injury and cytokine/chemokine responses ([2]; 1 and 3 mg/kg IV at 24, 48 and 72 hours after induction of peritonitis) | Metabolites of phosphate prodrug characterized in plasma: Monkey [3] | solubility [4] [µg/mL] | Metabolites of phosphate prodrug characterized in plasma: Mouse [5] | 7-day survival ([2]; 0.3 mg/kg IV at 24, 48 and 72 hours after surgery) [%] | minimally effective dose in mCLP ([2]; IV) [mg/kg] | IV pharmacokinetics [6]
1 | C=Cc1cc(O)cc2nc(-c3ccc(O)c(F)c3)oc12 [ERB-041, 2-(3-fluoro-4-hydroxyphenyl)-7-vinyl-1,3-benzoxazol-5-ol, reference compound] | Yes | 90 | 95 | attenuation | Yes | 4 (≈ 14.7 µM) | Yes | – | – | –
2 | C=Cc1cc(O)cc2nc(-c3ccc(OP(=O)(O)O)c(F)c3)oc12 [Mono-Phosphate derivative of ERB 041, 2-fluoro-4-(5-hydroxy-7-vinylbenzo[d]oxazol-2-yl)phenyl dihydrogen phosphate] | Yes | 60 | 60 | – | Yes | > 100 | Yes | 40 | 1 | reasonable
